According to article PMC8697972, “New Auranofin Analogs with Antibacterial Properties against Burkholderia Clinical Isolates” (Antibiotics, 2021):
≈ marks a conversion by molar mass, not a printed value. Read-outs that look alike come from different tables or passages of the source.

Assays:
[1] = test system: B. cenocepacia 140485; assay type: cell-based, Burkholderia cenocepacia; settings: Burkholderia cenocepacia, 140485
[2] = test system: B. cenocepacia K56-2; assay type: cell-based, Burkholderia cenocepacia; settings: Burkholderia cenocepacia, 18 h
[3] = test system: B. contaminans MF16; assay type: cell-based, Burkholderia contaminans; settings: Burkholderia contaminans, MF16
[4] = test system: B. dolosa CEP021; assay type: cell-based, Burkholderia dolosa; settings: Burkholderia dolosa, CEP021
[5] = test system: B. ubonensis LMG 20358; assay type: cell-based, Burkholderia ubonensis; settings: Burkholderia ubonensis, LMG20358
[6] = test system: Burkholderia cenocepacia K56-2; test: Time kill assays (exponential and stationary phase); settings: time kill, 1×, 2×, 4× MIC (DOX 4× MIC), 6 h
[7] = test system: Galleria mellonella larvae; test: Galleria toxicity
[8] = test system: B. multivorans ATCC17616; assay type: cell-based, Burkholderia multivorans; settings: Burkholderia multivorans, ATCC17616
[9] = test system: B. contaminans FFH-2050MA; assay type: cell-based, Burkholderia contaminans; settings: Burkholderia contaminans, FFH2050MA
[10] = test system: members of the Bcc; test: MIC, summary over Bcc panel; assay type: cell-based, Burkholderia cepacia complex
[11] = test system: C. elegans DH26; settings: for Percent survival of C. elegans: 24 h
[12] = test system: B. lata BCC6; assay type: cell-based, Burkholderia lata; settings: Burkholderia lata, BCC6
[13] = test system: B. contaminans FFH-4004; assay type: cell-based, Burkholderia contaminans; settings: Burkholderia contaminans, FFH4004

C[C@H]1c2cccc(O)c2C(=O)C2=C(O)[C@]3(O)C(=O)C(C(N)=O)=C(O)[C@@H](N(C)C)[C@@H]3[C@@H](O)[C@@H]21 [DOX, doxycycline, reference compound]
MIC [1]: 1 µg/mL (≈ 2.25 µM) | MIC [2]: 4 µg/mL (≈ 9 µM) | MIC [3]: 16 µg/mL (≈ 36 µM) | MIC [4]: 16 µg/mL (≈ 36 µM) | MIC [5]: 4 µg/mL (≈ 9 µM) | killing of stationary (non-replicating) phase cells [6]: unable to kill cells | Galleria Survival ([7]; 1.0 mg/kg, 24 h): 96.7% | Galleria Survival ([7]; 1.0 mg/kg, 48 h): 96.7% | Galleria Survival ([7]; 1.0 mg/kg, 72 h): 96.7% | Galleria Survival ([7]; 2.0 mg/kg, 24 h): 93.3% | Galleria Survival ([7]; 2.0 mg/kg, 48 h): 93.3% | Galleria Survival ([7]; 2.0 mg/kg, 72 h): 93.3% | Galleria Survival ([7]; 5.0 mg/kg, 24 h): 93.3% | Galleria Survival ([7]; 5.0 mg/kg, 48 h): 90.0% | Galleria Survival ([7]; 5.0 mg/kg, 72 h): 90.0% | Galleria Survival ([7]; 10.0 mg/kg, 24 h): 93.3% | Galleria Survival ([7]; 10.0 mg/kg, 48 h): 93.3% | Galleria Survival ([7]; 10.0 mg/kg, 72 h): 93.3% | MIC [8]: 2 µg/mL (≈ 4.5 µM) | MIC [9]: 2 µg/mL (≈ 4.5 µM) | MIC ([10]; Burkholderia cepacia, read-out: MIC values against some isolates from the Bcc, lowest values, some isolates): 1 µg/mL (≈ 2.25 µM) | MIC values against some isolates from the Bcc ([10]; lowest values, some isolates): 2 µg/mL (≈ 4.5 µM) | Percent survival of C. elegans ([11]; 4 μg/mL): 100% | Percent survival of C. elegans ([11]; 8 μg/mL): 97.4% | Percent survival of C. elegans ([11]; 16 μg/mL): 100% | Percent survival of C. elegans ([11]; 32 μg/mL): 98.2% | Percent survival of C. elegans ([11]; 64 μg/mL): 100% | Percent survival of C. elegans ([11]; 128 μg/mL): 91.5% | Percent survival of C. elegans ([11]; 256 μg/mL): 79.5% | Survival100/MIC Ratio ([11]; highest concentration with 100 percent survival divided by the compound's MIC): 16 | MIC [12]: 4 µg/mL (≈ 9 µM) | MIC [13]: 8 µg/mL (≈ 18 µM)
